In patent US11458144B1, “Methods for using 5-HMF analogs with increased solubility to inhibit or reverse RBC sickling” (King Abdulaziz University, priority 2021, dated 2022):

Legend:
Hb [1] = target: T1, Hb (Homo sapiens, UniProt P68871+P69905, E7V); test: Oxygen equilibrium study (P50 shift) of lysates from SS blood, Hemox Analyzer; assay type: cell-based; conditions: SS RBCs
T1 construct: Using homozygous sickle (SS) blood from patients; endogenous in cells; host or cells: red blood cells of homozygous SS patient blood (hematocrit 20%); clarified lysates measured after incubation
Method: (§1) The effect of the MMA compounds and positive control 5-HMF on RBC sickling, Hb modification, and Hb oxygen equilibrium was studied utilizing SS blood following previous procedure.^[27]
For the oxygen equilibrium study, about 100 μL aliquot of clarified lysate of residual samples from the above antisickling study was added to 4 mL of 0.1 M potassium phosphate buffer, pH 7.0, in cuvettes and subjected to hemoximetry analysis using Hemox™ Analyzer (TCS Scientific Corp., New Hope, Pa.) to assess P50 shift, which is the partial pressure of oxygen (PO2) at which 50% of Hb is saturated with oxygen (SO2). Degree of Hb O2 affinity shift (ΔP50) was expressed as percentage fractions of control DMSO-treated samples.
(§2) Using homozygous sickle (SS) blood from patients, the MMA compounds (MMA502, MMA503, MMA504, MMA505, and MMA509 were tested with 5-HMF as control for Hb adduct formation, effect on Hb affinity for oxygen and corresponding antisickling activities (RBC morphology study) using previously published protocols.^14,15

Hb [2] = target: T1, Hb; test: Hb adduct formation (Hb modification) by cation-exchange HPLC, SS blood lysates; assay type: binding; conditions: SS RBCs
Text: as §1
The Hb adduct formation study also used clarified lysates that were subjected to a cation-exchange HPLC (Hitachi D-7000 Series, Hitachi Instruments, Inc., San Jose, Calif.), and a weak cation-exchange column (Poly CAT A: 30 mm×4.6 mm, Poly LC, Inc., Columbia, Md.).
as §2

SS RBCs = test: Antisickling study (RBC morphology) in SS blood under hypoxia; assay type: cell-based, human; conditions: Homo sapiens, 2 mM; SS blood hematocrit 20%, 2.5% O2, 37° C.; read-out: % Sickling inhibition
Method: as §1
For the antisickling study, SS blood (hematocrit 20%) were incubated under air in the absence or presence of all the MMA compounds (0.5 mM, 1 mM and 2 mM) at 37° C. for 1 h, followed by incubating the mixture under hypoxic conditions (2.5% O2) at 37° C. for 2 h. Aliquots with fixed 2% glutaraldehyde solution and under anaerobic condition were subjected to microscopic morphological analysis.^[11]
as §2

[3] = test system: human cytochrome P450 (CYP) enzymes; test: In vitro CYP inhibition, panel of seven enzymes (overall statement); assay type: in vitro ADME; conditions: 0.1 to 100 μM; pooled human liver microsomes
Method: The probe substrates include tacrine (CYP1A2), amodiaquine (CYP2C8), tolbutamide (CYP2C9), mephenytoin (CYP2C19), dextromethorphan (CYP2D6), midazolam (CYP3A4), testosterone (CYP3A4), and bupropion (CYP2B6). […] The assays were performed in duplicate in 96-well plates at 37° C. for 10-60 minutes. The reaction was terminated with addition of methanol, followed by incubation at 4° C. for 10 min and centrifuged at 4° C. for 10 min.

HbA = target: T2, HbA (Homo sapiens, UniProt P68871+P69905); test: Time-dependent Hb oxygen equilibrium study in normal whole blood; assay type: cell-based; conditions: 2 mM, 20% hematocrit, at 1.5 hours
T2 construct: time-dependent P50-shift of HbA in normal blood (20% hematocrit); endogenous in cells; host or cells: red blood cells in normal whole blood of adult donors (hematocrit 20%)
Method: The time-dependent effect of the MMA compounds and positive control 5-HMF on Hb oxygen affinity was studied using normal blood following previous procedure.^[15] Briefly, normal blood samples (hematocrit 20%) were incubated with the compounds at 37° C. for 24 h. Aliquots were taken at various time points and incubated in IL 237 tonometers (Instrumentation Laboratories, Inc. Lexington, Mass.) for 10 minutes at 37° C., and allowed to equilibrate at oxygen tensions 6, 20, and 40 mmHg. The samples were then aspirated into an ABL 700 Automated Blood Gas Analyzer (Radiometer) to determine the pH, partial pressure of CO2 (pCO2), partial pressure of oxygen (pO2), and Hb oxygen saturation values (SO2). The measured values of pO2 (mmHg) and SO2 at each pO2 value were then subjected to a non-linear regression analysis using the program Scientist (Micromath, Salt Lake City, Utah) to estimate P50 as previously reported.^[28]
5-HMF has a short half-life and poor oral bioavailability due to this metabolic instability, which in part prevented its development for chronic use. Nonetheless, this metabolic instability could be advantageous for parenteral formulation for acute use. […] Briefly, blood samples (hematocrit 20%) were incubated with the compounds at 37° C. for 24 h, and aliquots were taken at the various time points and used to determine the PO2 and SO2 using ABL 800 Automated Blood Gas Analyzer (Radiometer), and to estimate P50 as previously reported.^[10]
The study confirmed the trend in the biological potencies observed with SS blood.

O=Cc1ccc(-c2ccn[nH]2)o1 [MMA-503, 5-(1H-pyrazol-5-yl)furan-2-carbaldehyde] was tested, and the “% Hb-O2 affinity (P50 shift vs DMSO control)” value (Hb [1]; 0.5 mM) was 8.0 ± 1.1%, the “% Hb-O2 affinity (P50 shift vs DMSO control)” value (Hb [1]; 1 mM) was 20.0 ± 2.5% and the “% Hb-O2 affinity (P50 shift vs DMSO control)” value (Hb [1]; 2 mM, listed as 503) was 37.1 ± 2.5%. For the same compound, the “% Hb-O2 affinity (P50 shift vs DMSO control)” value (Hb [1]; 2 mM, listed as MMA503) was 37%, the “% Hb-modification (adduct formation)” value (Hb [2]; 0.5 mM) was 4.8 ± 2.1% and the “% Hb-modification (adduct formation)” value (Hb [2]; 1 mM) was 18.0 ± 7.9%. For the same compound, the “% Hb-modification (adduct formation)” value (Hb [2]; 2 mM, listed as 503) was 34.6 ± 7.1% and the “% Hb-modification (adduct formation)” value (Hb [2]; 2 mM, listed as MMA503) was 35%.
In the case of O=Cc1ccc(N2CCC(O)CC2)o1 [MMA-504, 5-(4-hydroxypiperidin-1-yl)furan-2-carbaldehyde], the “% Hb-O2 affinity (P50 shift vs DMSO control)” value (Hb [1]; 0.5 mM) is reported as 4.4 ± 5.1%, the “% Hb-O2 affinity (P50 shift vs DMSO control)” value (Hb [1]; 1 mM) is reported as 5.3 ± 1.5% and the “% Hb-O2 affinity (P50 shift vs DMSO control)” value (Hb [1]; 2 mM, listed as 504) is reported as 2.7 ± 1.2%. For the same compound, the “% Hb-O2 affinity (P50 shift vs DMSO control)” value (Hb [1]; 2 mM, listed as MMA504) was 3%, the inhibition at 2000 µM (SS RBCs) was 27% and the “% Hb-modification (adduct formation)” value (Hb [2]; 0.5 mM) was 0.0 ± 0.0%. For the same compound, the “% Hb-modification (adduct formation)” value (Hb [2]; 1 mM) was 0.0 ± 1.0%, the “% Hb-modification (adduct formation)” value (Hb [2]; 2 mM, listed as 504) was 0.4 ± 0.8% and the “% Hb-modification (adduct formation)” value (Hb [2]; 2 mM, listed as MMA504) was less than 1%.
With O=Cc1ccc(C2CCCCO2)o1 (stereo not drawn) [MMA-509] the “% Hb-O2 affinity (P50 shift vs DMSO control)” value (Hb [1]; 0.5 mM) was 16.3 ± 1.5%, the “% Hb-O2 affinity (P50 shift vs DMSO control)” value (Hb [1]; 1 mM) was 34.5 ± 14.4% and the “% Hb-O2 affinity (P50 shift vs DMSO control)” value (Hb [1]; 2 mM, listed as 509) was 58.5 ± 15.3%. The “% Hb-O2 affinity (P50 shift vs DMSO control)” value (Hb [1]; 2 mM, listed as MMA509) was 59%, the “inhibition of liver CYP isozymes” value [3] was “no inhibition” and the “% Hb-modification (adduct formation)” value (Hb [2]; 0.5 mM) was 16.2 ± 0.0%. For the same compound, the “% Hb-modification (adduct formation)” value (Hb [2]; 1 mM) was 27.6 ± 3.6%, the “% Hb-modification (adduct formation)” value (Hb [2]; 2 mM, listed as 509) was 53.3 ± 3.9% and the “% Hb-modification (adduct formation)” value (Hb [2]; 2 mM, listed as MMA509) was 53%. For the same compound, the “%P50 shift” value (HbA) was 60%.
